# Assay results published in US9340590B2 (priority 2011, dated 2016).
# Where two headings read alike, the source gives them in different places. Positions of bridges follow the written chain, without caps; N, C: chain ends. Non-standard residues stand in square brackets, D forms with d. Residues, ends and D or L forms follow the SMILES beside them. Trp(1-Me) = Cn1cc(C[C@H](N)C(=O)O)c2ccccc21
# How the values were obtained:
# Assay in all cases: cell-based
# hNav1.5 = hNav1.5 (Homo sapiens, UniProt Q14524); details: IonWorks Quattro, read-out: IWQ Use Nav1.5
# hNav1.5, sequence (Q14524 whole entry, looked up): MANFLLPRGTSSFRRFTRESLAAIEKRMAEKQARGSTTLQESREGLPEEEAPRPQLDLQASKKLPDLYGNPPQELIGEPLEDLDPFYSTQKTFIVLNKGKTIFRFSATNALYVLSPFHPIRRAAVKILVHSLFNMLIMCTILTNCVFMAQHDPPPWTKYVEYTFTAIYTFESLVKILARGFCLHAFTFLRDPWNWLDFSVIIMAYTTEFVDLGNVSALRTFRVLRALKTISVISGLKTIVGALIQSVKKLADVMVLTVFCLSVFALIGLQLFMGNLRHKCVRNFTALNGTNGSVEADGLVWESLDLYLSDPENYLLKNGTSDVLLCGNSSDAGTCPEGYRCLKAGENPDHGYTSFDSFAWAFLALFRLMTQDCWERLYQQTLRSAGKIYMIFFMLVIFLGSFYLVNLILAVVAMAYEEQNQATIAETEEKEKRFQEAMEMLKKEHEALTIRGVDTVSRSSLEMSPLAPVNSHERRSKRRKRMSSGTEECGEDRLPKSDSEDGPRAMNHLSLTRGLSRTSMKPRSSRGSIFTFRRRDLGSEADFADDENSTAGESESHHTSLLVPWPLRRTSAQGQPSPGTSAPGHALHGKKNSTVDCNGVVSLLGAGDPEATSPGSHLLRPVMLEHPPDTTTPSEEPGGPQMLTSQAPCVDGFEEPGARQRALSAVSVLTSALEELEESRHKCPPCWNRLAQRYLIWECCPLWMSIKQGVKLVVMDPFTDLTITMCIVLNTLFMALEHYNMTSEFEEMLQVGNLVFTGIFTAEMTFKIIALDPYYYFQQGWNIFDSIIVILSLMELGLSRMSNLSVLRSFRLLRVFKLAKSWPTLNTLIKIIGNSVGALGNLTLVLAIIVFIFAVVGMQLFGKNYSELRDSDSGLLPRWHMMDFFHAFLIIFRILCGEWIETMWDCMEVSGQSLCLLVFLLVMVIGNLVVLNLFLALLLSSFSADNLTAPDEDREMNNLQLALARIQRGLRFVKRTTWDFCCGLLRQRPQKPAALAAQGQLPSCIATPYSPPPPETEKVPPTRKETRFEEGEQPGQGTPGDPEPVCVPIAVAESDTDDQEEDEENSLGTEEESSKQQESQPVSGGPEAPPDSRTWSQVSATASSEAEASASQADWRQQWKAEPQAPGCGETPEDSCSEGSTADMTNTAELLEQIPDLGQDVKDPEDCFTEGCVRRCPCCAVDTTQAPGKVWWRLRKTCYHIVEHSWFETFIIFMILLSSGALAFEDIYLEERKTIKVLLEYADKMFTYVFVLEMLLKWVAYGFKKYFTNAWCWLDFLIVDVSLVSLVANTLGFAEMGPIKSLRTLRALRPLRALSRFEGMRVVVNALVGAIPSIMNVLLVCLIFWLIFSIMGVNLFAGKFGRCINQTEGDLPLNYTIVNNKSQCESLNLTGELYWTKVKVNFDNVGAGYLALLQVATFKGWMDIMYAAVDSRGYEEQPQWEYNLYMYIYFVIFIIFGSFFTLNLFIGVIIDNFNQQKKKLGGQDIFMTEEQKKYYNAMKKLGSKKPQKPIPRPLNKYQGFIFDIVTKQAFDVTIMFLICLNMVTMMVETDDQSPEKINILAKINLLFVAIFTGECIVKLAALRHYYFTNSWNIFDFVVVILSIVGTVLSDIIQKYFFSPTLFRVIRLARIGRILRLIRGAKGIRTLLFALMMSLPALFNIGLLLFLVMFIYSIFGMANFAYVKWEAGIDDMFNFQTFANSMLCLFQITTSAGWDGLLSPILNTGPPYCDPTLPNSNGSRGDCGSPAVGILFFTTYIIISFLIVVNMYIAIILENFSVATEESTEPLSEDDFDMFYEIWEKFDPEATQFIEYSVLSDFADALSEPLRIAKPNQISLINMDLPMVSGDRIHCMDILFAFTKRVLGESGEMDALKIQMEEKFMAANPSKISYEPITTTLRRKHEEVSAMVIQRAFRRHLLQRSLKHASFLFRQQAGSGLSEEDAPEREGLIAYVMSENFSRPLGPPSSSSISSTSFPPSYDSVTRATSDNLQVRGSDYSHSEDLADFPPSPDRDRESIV
# hNav1.7 = hNav1.7 (Homo sapiens, UniProt Q15858); type: cell-based; details: IonWorks Quattro, read-out: IWQ Use Nav1.7
# hNav1.7, sequence (Q15858 whole entry, looked up): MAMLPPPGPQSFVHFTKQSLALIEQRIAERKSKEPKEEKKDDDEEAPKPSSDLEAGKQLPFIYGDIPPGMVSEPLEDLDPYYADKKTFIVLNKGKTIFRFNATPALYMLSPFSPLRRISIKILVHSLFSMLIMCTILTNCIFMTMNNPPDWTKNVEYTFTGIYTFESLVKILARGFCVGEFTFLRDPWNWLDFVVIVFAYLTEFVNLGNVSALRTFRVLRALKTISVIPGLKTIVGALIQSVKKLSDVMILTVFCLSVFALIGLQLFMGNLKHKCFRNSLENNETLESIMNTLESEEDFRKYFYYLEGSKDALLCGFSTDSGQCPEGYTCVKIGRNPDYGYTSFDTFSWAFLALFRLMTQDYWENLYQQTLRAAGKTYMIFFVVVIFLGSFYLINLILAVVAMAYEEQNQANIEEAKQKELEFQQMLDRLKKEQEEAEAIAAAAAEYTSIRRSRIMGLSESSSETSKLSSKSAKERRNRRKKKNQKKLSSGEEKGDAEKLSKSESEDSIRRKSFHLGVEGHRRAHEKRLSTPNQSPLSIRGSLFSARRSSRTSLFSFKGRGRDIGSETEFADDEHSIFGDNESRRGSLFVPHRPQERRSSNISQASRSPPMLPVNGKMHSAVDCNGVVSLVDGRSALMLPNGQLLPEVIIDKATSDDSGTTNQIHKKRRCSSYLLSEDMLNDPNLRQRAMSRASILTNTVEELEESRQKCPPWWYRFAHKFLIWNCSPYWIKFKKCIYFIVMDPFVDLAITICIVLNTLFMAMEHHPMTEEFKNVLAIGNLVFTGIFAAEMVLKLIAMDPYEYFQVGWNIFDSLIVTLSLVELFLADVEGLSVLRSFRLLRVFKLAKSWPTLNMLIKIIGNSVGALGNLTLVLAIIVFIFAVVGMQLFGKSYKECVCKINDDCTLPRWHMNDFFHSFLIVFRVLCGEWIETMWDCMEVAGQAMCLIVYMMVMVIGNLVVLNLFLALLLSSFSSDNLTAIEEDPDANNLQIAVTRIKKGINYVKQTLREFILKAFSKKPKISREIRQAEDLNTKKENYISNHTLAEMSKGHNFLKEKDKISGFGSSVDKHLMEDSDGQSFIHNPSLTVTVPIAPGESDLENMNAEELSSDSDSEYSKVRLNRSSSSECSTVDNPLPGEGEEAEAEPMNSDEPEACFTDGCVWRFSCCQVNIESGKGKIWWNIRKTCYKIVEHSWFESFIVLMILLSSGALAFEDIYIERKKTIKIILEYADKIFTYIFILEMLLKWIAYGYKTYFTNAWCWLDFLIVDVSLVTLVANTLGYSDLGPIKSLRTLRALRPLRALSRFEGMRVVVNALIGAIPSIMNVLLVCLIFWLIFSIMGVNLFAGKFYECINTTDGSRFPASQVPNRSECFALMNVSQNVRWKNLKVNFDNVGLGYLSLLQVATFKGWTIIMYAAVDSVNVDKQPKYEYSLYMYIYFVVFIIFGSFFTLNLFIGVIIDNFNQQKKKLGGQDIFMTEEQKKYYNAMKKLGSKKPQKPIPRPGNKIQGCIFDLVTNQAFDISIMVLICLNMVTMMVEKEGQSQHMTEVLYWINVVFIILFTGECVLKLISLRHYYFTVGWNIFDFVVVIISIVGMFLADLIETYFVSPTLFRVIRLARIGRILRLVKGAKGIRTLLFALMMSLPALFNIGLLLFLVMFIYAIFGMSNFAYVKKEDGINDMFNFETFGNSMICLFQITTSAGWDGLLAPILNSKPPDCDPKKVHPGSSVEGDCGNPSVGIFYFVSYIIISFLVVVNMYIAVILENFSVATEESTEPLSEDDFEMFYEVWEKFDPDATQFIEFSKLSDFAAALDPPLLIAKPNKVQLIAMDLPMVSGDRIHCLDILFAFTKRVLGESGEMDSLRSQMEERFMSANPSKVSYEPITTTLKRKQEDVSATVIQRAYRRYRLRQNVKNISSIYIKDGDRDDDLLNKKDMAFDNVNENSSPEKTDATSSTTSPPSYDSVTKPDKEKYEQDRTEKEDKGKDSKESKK
# hNav1.3 = hNav1.3 (Homo sapiens, UniProt Q9NY46); details: IonWorks Quattro, read-out: IWQ Use Nav1.3
# [1] = use-dependent protocol, hNav1.5
# [2] = use-dependent protocol, hNav1.7
# [3] = use-dependent protocol, hNav1.3
smiles,measurement,setting,value
"CC[C@H](C)[C@@H]1NC(=O)[C@@H]2CSSC[C@@H]3NC(=O)[C@H](C(C)C)NC(=O)[C@H](CC(C)C)NC(=O)[C@H](CC(N)=O)NC(=O)[C@@H]4CCCN4C(=O)[C@H](CCCNC(=N)N)NC(=O)[C@H](CSSC[C@H](NC(=O)[C@@H](N)CC(=O)O)C(=O)N[C@@H](CC(C)C)C(=O)NCC(=O)N[C@@H](Cc4ccccc4)C(=O)N[C@@H](CCSC)C(=O)N[C@@H](CCCNC(=N)N)C(=O)N[C@@H](CCCCN)C(=O)N2)NC(=O)[C@H](CSSC[C@@H](C(=O)N[C@@H](CCCCN)C(=O)N[C@@H](Cc2ccc(O)cc2)C(=O)N[C@H](C(=O)N[C@@H](Cc2ccccc2)C(N)=O)C(C)C)NC(=O)[C@H](Cc2c[nH]c4ccccc24)NC(=O)[C@H](CCCCN)NC(=O)[C@H](Cc2c[nH]cn2)NC(=O)[C@H](CC(=O)O)NC(=O)[C@H](CCCNC(=N)N)NC(=O)[C@H](CO)NC3=O)NC(=O)[C@H](CCCCN)NC(=O)[C@H](CC(=O)O)NC(=O)[C@H](CC(N)=O)NC(=O)[C@H](CC(=O)O)NC(=O)[C@@H]2CCCN2C1=O [compound 347] (H-DCLGFMRKCIPDNDKCCRPNLVCSRDHKWCKYVF-NH2; disulfide 2-17, 9-23, 16-30)",IC50,"hNav1.5; Table 22, use, […]",14100 nM
same,IC50,"hNav1.7; Table 22, use, […]",960 nM
same,IC50,"hNav1.3; Table 22, use, […]",640 nM
CC[C@H](C)[C@@H]1NC(=O)[C@@H]2CSSC[C@@H]3NC(=O)[C@H](C(C)C)NC(=O)[C@H](CC(C)C)NC(=O)[C@H](CC(N)=O)NC(=O)[C@@H]4CCCN4C(=O)[C@H](CCCNC(=N)N)NC(=O)[C@H](CSSC[C@H](NC(=O)[C@@H](N)CC(=O)O)C(=O)N[C@@H](CC(C)C)C(=O)NCC(=O)N[C@@H](CCc4ccccc4)C(=O)N[C@@H](CC(C)C)C(=O)N[C@@H](CCCNC(=N)N)C(=O)N[C@@H](CCCCN)C(=O)N2)NC(=O)[C@H](CSSC[C@@H](C(=O)N[C@@H](CCCCN)C(=O)N[C@@H](Cc2ccc(O)cc2)C(=O)N[C@H](C(=O)N[C@@H](Cc2ccccc2)C(N)=O)C(C)C)NC(=O)[C@H](Cc2c[nH]c4ccccc24)NC(=O)[C@H](CCCCN)NC(=O)[C@H](Cc2c[nH]cn2)NC(=O)[C@H]([C@@H](C)O)NC(=O)[C@H](CCCNC(=N)N)NC(=O)[C@H](CO)NC3=O)NC(=O)[C@H](CCCCN)NC(=O)[C@H](CC(=O)O)NC(=O)[C@H](CC(N)=O)NC(=O)[C@H](CC(=O)O)NC(=O)[C@@H]2CCCN2C1=O [compound 676],IC50,hNav1.5; [1],> 5000 nM
same,IC50,hNav1.7; [2],16 nM
same,IC50,hNav1.3; [3],61 nM
"CC[C@H](C)[C@@H]1NC(=O)[C@@H]2CSSC[C@@H]3NC(=O)[C@H](C(C)C)NC(=O)[C@H](CC(C)C)NC(=O)[C@H](CC(N)=O)NC(=O)[C@@H]4CCCN4C(=O)[C@H](CCCNC(=N)N)NC(=O)[C@H](CSSC[C@H](NC(=O)[C@@H](N)CC(=O)O)C(=O)N[C@@H](CC(C)C)C(=O)NCC(=O)N[C@@H](Cc4ccccc4)C(=O)N[C@@H](CCSC)C(=O)N[C@@H](CCCNC(=N)N)C(=O)N[C@@H](CCCCN)C(=O)N2)NC(=O)[C@H](CSSC[C@@H](C(=O)N[C@@H](CCC(=O)O)C(=O)N[C@@H](Cc2ccc(O)cc2)C(=O)N[C@H](C(=O)N[C@@H](Cc2ccccc2)C(N)=O)C(C)C)NC(=O)[C@H](Cc2c[nH]c4ccccc24)NC(=O)[C@H](CCCCN)NC(=O)[C@H](Cc2cnc[nH]2)NC(=O)[C@H]([C@@H](C)O)NC(=O)[C@H](CCCNC(=N)N)NC(=O)[C@H](CO)NC3=O)NC(=O)[C@H](CCCCN)NC(=O)[C@H](CC(=O)O)NC(=O)[C@H](CC(N)=O)NC(=O)[C@H](CC(=O)O)NC(=O)[C@@H]2CCCN2C1=O [compound 31] (H-DCLGFMRKCIPDNDKCCRPNLVCSRTHKWCEYVF-NH2; disulfide 2-17, 9-23, 16-30)",IC50,"hNav1.5; Table 25, use, […]",21700 nM
same,IC50,"hNav1.7; Table 25, use, […]",23000 nM
same,IC50,"hNav1.3; Table 25, use, […]",13100 nM
CC[C@H](C)[C@@H]1NC(=O)[C@@H]2CSSC[C@@H]3NC(=O)[C@H](C(C)C)NC(=O)[C@H](CC(C)C)NC(=O)[C@H](CC(N)=O)NC(=O)[C@@H]4CCCN4C(=O)[C@H](CCCNC(=N)N)NC(=O)[C@H](CSSC[C@H](NC(=O)[C@@H](N)CC(=O)O)C(=O)N[C@@H](CC(C)C)C(=O)NCC(=O)N[C@@H](C(C)(C)C)C(=O)N[C@@H](CC(C)C)C(=O)N[C@@H](CCCNC(=N)N)C(=O)N[C@@H](CCCCN)C(=O)N2)NC(=O)[C@H](CSSC[C@@H](C(=O)N[C@@H](CCCCN)C(=O)N[C@@H](Cc2ccc(O)cc2)C(=O)N[C@H](C(=O)N[C@@H](Cc2ccccc2)C(N)=O)C(C)C)NC(=O)[C@H](Cc2c[nH]c4ccccc24)NC(=O)[C@H](CCCCN)NC(=O)[C@H](Cc2c[nH]cn2)NC(=O)[C@H]([C@@H](C)O)NC(=O)[C@H](CCCNC(=N)N)NC(=O)[C@H](CO)NC3=O)NC(=O)[C@H](CCCCN)NC(=O)[C@H](CC(=O)O)NC(=O)[C@H](CC(N)=O)NC(=O)[C@H](CC(=O)O)NC(=O)[C@@H]2CCCN2C1=O [compound 659],IC50,hNav1.5; [1],> 5000 nM
same,IC50,hNav1.7; [2],260 nM
same,IC50,hNav1.3; [3],580 nM
"CC[C@H](C)[C@@H]1NC(=O)[C@@H]2CSSC[C@@H]3NC(=O)[C@H](C(C)C)NC(=O)[C@H](CC(C)C)NC(=O)[C@H](CC(N)=O)NC(=O)[C@@H]4CCCN4C(=O)[C@H](CCCNC(=N)N)NC(=O)[C@H](CSSC[C@H](NC(=O)[C@@H](N)CC(=O)O)C(=O)N[C@@H](CC(C)C)C(=O)NCC(=O)N[C@@H](C)C(=O)N[C@@H](CCSC)C(=O)N[C@@H](CCCNC(=N)N)C(=O)N[C@@H](CCCCN)C(=O)N2)NC(=O)[C@H](CSSC[C@@H](C(=O)N[C@@H](CCCCN)C(=O)N[C@@H](Cc2ccc(O)cc2)C(=O)N[C@H](C(=O)N[C@@H](Cc2ccccc2)C(N)=O)C(C)C)NC(=O)[C@H](Cc2c[nH]c4ccccc24)NC(=O)[C@H](CCCCN)NC(=O)[C@H](Cc2c[nH]cn2)NC(=O)[C@H]([C@@H](C)O)NC(=O)[C@H](CCCNC(=N)N)NC(=O)[C@H](CO)NC3=O)NC(=O)[C@H](CCCCN)NC(=O)[C@H](CC(=O)O)NC(=O)[C@H](Cc2c[nH]c3ccccc23)NC(=O)[C@H](CC(=O)O)NC(=O)[C@@H]2CCCN2C1=O [compound 428] (H-DCLGAMRKCIPDWDKCCRPNLVCSRTHKWCKYVF-NH2; disulfide 2-17, 9-23, 16-30)",IC50,"hNav1.5; use-dependent block, hNav1.5",> 5000 nM
same,IC50,"hNav1.7; use-dependent block, hNav1.7",670 nM
same,IC50,"hNav1.3; use-dependent block, hNav1.3",1100 nM
"CC[C@H](C)[C@@H]1NC(=O)[C@@H]2CSSC[C@@H]3NC(=O)[C@H](C(C)C)NC(=O)[C@H](CC(C)C)NC(=O)[C@H](CC(N)=O)NC(=O)[C@@H]4CCCN4C(=O)[C@H](CCCNC(=N)N)NC(=O)[C@H](CSSC[C@H](NC(=O)[C@@H](N)CC(=O)O)C(=O)N[C@@H](CC(C)C)C(=O)NCC(=O)N[C@@H](Cc4ccccc4)C(=O)N[C@@H](CCSC)C(=O)N[C@@H](CCCNC(=N)N)C(=O)N[C@@H](CCCCN)C(=O)N2)NC(=O)[C@H](CSSC[C@@H](C(=O)N[C@@H](CCCCN)C(=O)N[C@@H](Cc2ccc(O)cc2)C(=O)N[C@H](C(=O)N[C@@H](Cc2cn(C)c4ccccc24)C(N)=O)C(C)C)NC(=O)[C@H](Cc2c[nH]c4ccccc24)NC(=O)[C@H](CCCCN)NC(=O)[C@H](Cc2c[nH]cn2)NC(=O)[C@H]([C@@H](C)O)NC(=O)[C@H](CCCNC(=N)N)NC(=O)[C@H](CO)NC3=O)NC(=O)[C@H](CCCCN)NC(=O)[C@H](CC(=O)O)NC(=O)[C@H](CC(N)=O)NC(=O)[C@H](CC(=O)O)NC(=O)[C@@H]2CCCN2C1=O [compound 409] (H-DCLGFMRKCIPDNDKCCRPNLVCSRTHKWCKYV[Trp(1-Me)]-NH2; disulfide 2-17, 9-23, 16-30)",IC50,"hNav1.5; use-dependent, […]",5610 nM
same,IC50,"hNav1.7; use-dependent, […]",90 nM
same,IC50,"hNav1.3; use-dependent, […]",70 nM
